Measured values from patent publication US8568806B2, “Stable and bioavailable compositions of isomers of lycopene for skin and hair” (Indena, S.p.A., priority 2006, dated 2013).

Experiment: Stability of pure lycopene isomers in n-hexane during storage at room temperature
Type: physicochemical
Settings: storage in n-hexane at room temperature in the absence of light
Experimental: Pure 5-Z, 9-Z, 13-Z and all-E lycopene were isolated from isomerised tomato oleoresin (submitted to 1 hour heating), by collecting the fractions containing the corresponding peaks after HPLC separation (see below the experimental conditions). Peaks were collected during two consecutive HPLC runs and the corresponding fractions were pooled.
Lycopene isomer profiles were determined by normal phase HPLC according to the method described by Schierle et al. (Schierle, J., Bretzel, W., Buhler, I., Faccin, N., Hess, D., Steiner, K., Schuep, W. (1997). Food. Chem. 59: 459). Samples of isomerized oleoresins were dissolved in n-hexane containing 50 ppm BHT and spun at maximum speed in an Eppendorf Lab centrifuge. The resulting supernatants were immediately analyzed by HPLC. The HPLC system used was a 1100 series Hewlett-Packard model equipped with an ultraviolet-visible photodiode array detector. Data were simultaneously acquired at 470 nm, 464 nm, 346 nm and 294 nm. […]
Amounts of lycopene isomers were calculated based on surface areas of the HPLC peaks using the same extinction coefficient as the all-E lycopene. […]
Stability of lycopene isomers was investigated both in n-hexane and in a tomato oleoresin isomerized by 4 hour heating in ethyl acetate. […] Total lycopene concentration and lycopene isomer profiles were measured at various time intervals during the storage. […]

## CC(C)=CCC/C(C)=C/C=C/C(C)=C/C=C/C(C)=C\C=C\C=C(C)\C=C\C=C(C)\C=C\C=C(/C)CCC=C(C)C [13-Z lycopene]
  relative stability of the isomer: less stable isomer
